{
  "source": "patent US20220227776A1",
  "about": "“PRODRUGS OF 1'-S[…]-NUCLEOSIDE ANALOGUES FOR ANTIVIRAL TREATMENT” (Copycat Sciences Inc., priority 2020, published 2022)",
  "key": {"[1]": {"test": "Thermodynamic solubility at pH 7.4", "assay_type": "physicochemical", "excerpt": "(§1) As summarized in Table 8, these studies indicate that CAT002 is an efficient prodrug of GS-441524 that is well-suited for clinical development as an oral agent."}, "[2]": {"test": "Human plasma stability at 37° C."}, "Caco-2": {"tested_on": "Caco-2", "test": "Caco-2 permeability AB/BA", "assay_type": "in vitro ADME", "settings": "for Caco-2 permeability AB: AB direction; for Caco-2 permeability BA: BA direction; for Caco-2 Efflux: BA/AB"}, "[3]": {"test": "Human intestinal S9 stability at 37° C.", "assay_type": "in vitro ADME", "excerpt": "Across all species tested, CAT002 was efficiently metabolized to the core nucleoside GS-441524 when administered orally, indicating efficient first-pass intestinal or hepatic metabolism. Rapid hydrolysis of CAT002 in human intestinal homogenates indicated intestinal metabolism as the primary mechanism of CAT002 hydrolysis."}, "[4]": {"test": "Phosphate buffer stability at 25° C.", "assay_type": "physicochemical", "excerpt": "as §1"}, "[5]": {"test": "Human hepatic microsomal stability (+/- mixed cofactors)", "assay_type": "in vitro ADME"}, "[6]": {"test": "Plasma pharmacokinetics of GS-441524 following oral administration of CAT002 in cynomolgus macaques", "assay_type": "in vivo", "description": "CAT002 (7.8 mg/kg; 4.9 mg/kg-equivalent of the parent nucleoside, GS-441524) was formulated in saline (1.60 mg/mL) and orally administered to fasted male cynomolgus macaques (N=2). GS-441524 is in turn intracellularly converted to the bioactive ATP analogue, GS-443902. GS-443902 is known to have an antiviral activity and affinity for viral polymerase. See Gordon et al. JBC 2020; 295(20): 6785-6797; Tchesnokov et al. JBC 2020: 295(47):16156-16165; Yin et al. Science 2020: 368(6498): 1499-1504. Whole blood samples were collected at the following timepoints (hours) in K2EDTA collection tubes: 0.25, 0.50, 1.00, 2.00, 4.00, 8.00, 24.0, 48.0.\n(§2) Sample preparation. Plasma was isolated by protein precipitation in a 96-well plate at 0° C. An aliquot of 20 μL unknown sample, calibration standard, quality control and dilution quality control (if have), single blank, and double blank sample was added to the 96-well plate respectively. Each sample (except the double blank) was quenched with 100 μL of IS1 respectively (double blank sample was quenched with 100 μL of MeOH), and then the mixture was vortex-mixed for 10 min at 800 rpm and centrifuged for 15 min at 3220×g, 4° C. An aliquot of 60 μL supernatant was transferred to another clean 96-well plate and centrifuged for 5 min at 3220×g, 4° C., then the supernatant was directly injected for LC-MS/MS analysis.\nLC-MS/MS analysis. Metabolites of interest (CAT002, GS-441524) were then quantified by LC-MS/MS (SCIEX LC-MS/MS-BZ Triple Quad 6500+, ACQUITY UPLC HSS T3 1.8 μm 2.1×50 mm Column; mobile phase A: 0.1% formic acid in water, mobile phase B: 0.1% formic acid in acetonitrile; flow rate: 0.65 mL/min.). Gradient conditions were as follows: 2% B over 0.2 minutes, 2-25% B from 0.2-1.2 minutes, 25-95% from 1.2-1.4 minutes, 95% from 1.4-2.1 minutes, 95-2% from 2.1-2.11 minutes, 2% from 2.11-2.2 minutes). The lower limit of quantification for 1.00 ng/mL for CAT002 and 2.00 ng/mL for GS-441524. Data for both CAT002 and GS-441524 were fitted and analyzed by Phoenix NonWinLin 6.3 using noncompartmental model 200 (extravascular output). […]"}, "[7]": {"test": "Plasma pharmacokinetics of GS-441524 following oral administration of CAT002 in Sprague-Dawley rats", "assay_type": "in vivo", "description": "CAT002 (16 mg/kg; 10.8 mg/kg-equivalent of the parent nucleoside, GS-441524) was formulated in saline (1.60 mg/mL) and orally administered to fasted male rats (N=2). Whole blood samples were collected at the following timepoints (hours) in K2EDTA collection tubes: 0.25, 0.50, 1.00, 2.00, 4.00, 8.00, 24.0, 48.0.\nas §2\nLC-MS/MS analysis. Metabolites of interest (CAT002, GS-441524) were then quantified by LC-MS/MS (SCIEX LC-MS/MS-BZ Triple Quad 6500+, ACQUITY UPLC HSS T3 1.8 μm 2.1×50 mm Column; mobile phase A: 0.1% formic acid in water, mobile phase B: 0.1% formic acid in acetonitrile; flow rate: 0.65 mL/min.). Gradient conditions were as follows: 2% B over 0.2 minutes, 2-25% B from 0.2-1.2 minutes, 25-95% from 1.2-1.4 minutes, 95% from 1.4-2.1 minutes, 95-2% from 2.1-2.11 minutes, 2% from 2.11-2.2 minutes). The lower limit of quantification for both CAT002 and GS-441524 was 2.00 ng/mL. Data for both CAT002 and GS-441524 were fitted and analyzed by Phoenix NonWinLin 6.3 using noncompartmental model 200 (extravascular output). Data on directly administered oral GS-441524 were obtained from the NCATS OpenData Portal and are plotted alongside data generated from CAT002 for comparison (FIG. 1)."}, "[8]": {"test": "Plasma pharmacokinetics of GS-441524 following oral administration of CAT002 in humans", "assay_type": "in vivo", "description": "CAT002 (HCl salt) was administered as excipient-less gelatin capsules to healthy participants (N=2) in the fasted state. Participant 1 (Subject 1) is a healthy person and Participant 2 (Subject 2) is a healthy person. Both Participants 1 and 2 were administered 5.4 mg/kg CAT002 (3 mg/kg-equivalent GS-441524). Whole blood samples were collected at the following timepoints (hours) in K2EDTA collection tubes: 0.5, 1, 3.6, 8, 24, 43. Plasma was isolated by centrifugation and samples were stored at −78° C. before analysis.\nIn-life PK of orally administered GS-441524. GS-441524 was administered as an excipient-less gelatin capsule (200 mg) to Participant 1 in the fasted state. Whole blood samples were collected at the following timepoints (hours) in K2EDTA collection tubes: 0.5, 1, 3.6, 8, 24, 43. Plasma was isolated by centrifugation and samples were stored at −78° C. before analysis. Sample preparation. An aliquot of 20 μL unknown sample, calibration standard, quality control and dilution quality control (if have), single blank, and double blank sample was added to the 96-well plate respectively. Each sample (except the double blank) was quenched with 100 μL of IS1 respectively (double blank sample was quenched with 100 μL of MeOH), and then the mixture was vortex-mixed for 10 min at 800 rpm and centrifuged for 15 min at 3220×g, 4° C. An aliquot of 60 μL supernatant was transferred to another clean 96-well plate and centrifuged for 5 min at 3220×g, 4° C., then the supernatant was directly injected for LC-MS/MS analysis.\nLC-MS/MS analysis. Metabolites of interest (GS-441524) were then quantified by LC-MS/MS (SCIEX LC-MS/MS-BZ Triple Quad 6500+, ACQUITY UPLC HSS T3 1.8 μm 2.1×50 mm Column; mobile phase A: 0.1% formic acid in water, mobile phase B: 0.1% formic acid in acetonitrile; flow rate: 0.65 mL/min.). […] The lower limit of quantification was 1.00 ng/mL. Data for both CAT002 and GS-441524 were fitted and analyzed by Phoenix NonWinLin 6.3 using noncompartmental model 200 (extravascular output) (FIG. 3)."}, "[9]": {"settings": "oral CAT002, analyte GS-441524 in plasma"}, "[10]": {"settings": "oral CAT002 in aqueous solution"}},
  "data": [
    {"compound": "N#C[C@@]1(c2ccc3c(N)ncnn23)O[C@H](CO)[C@@H](O)[C@H]1O", "note": "[GS-441524, reference compound]", "values": [
      {"measurement": "Thermodynamic solubility at pH 7.4", "setting": "[1]", "value": 0.04, "unit": "mg/mL"},
      {"measurement": "Human plasma stability at 37° C.", "setting": "[2]; plasma type not specified", "value": "Stable"},
      {"measurement": "Caco-2 permeability AB", "setting": "Caco-2", "value": 0.17, "unit": "cm/sec•10^6"},
      {"measurement": "Caco-2 permeability BA", "setting": "Caco-2", "value": 2.1, "unit": "cm/sec•10^6"},
      {"measurement": "Caco-2 Efflux", "setting": "Caco-2", "value": 12.4},
      {"measurement": "Human intestinal S9 stability at 37° C.", "setting": "[3]", "value": "Stable"},
      {"measurement": "Phosphate buffer stability at 25° C., T1/2", "setting": "[4]; pH not specified", "value": "Stable"}
    ]},
    {"compound": "((2R,3S,4R,5R)-5-(4-aminopyrrolo[2,1-f][1,2,4]triazin-7-yl)-5-cyano-3,4-dihydroxytetrahydrofuran-2-yl)methyl D-valinate [CAT002]", "values": [
      {"measurement": "aqueous solubility at neutral pH, fold greater than GS-441524", "setting": "[1]; neutral pH, relative to GS-441524", "value": 87, "unit": "fold"},
      {"measurement": "Thermodynamic solubility at pH 7.4", "setting": "[1]", "value": 3.4, "unit": "mg/mL"},
      {"measurement": "Human hepatic microsomal stability, T1/2", "setting": "[5]", "value": "67 minutes (− cofactors)"},
      {"measurement": "Human plasma stability at 37° C.", "setting": "[2]; EDTA plasma", "value": "EDTA plasma: 195 minutes"},
      {"measurement": "Human plasma stability at 37° C.", "setting": "[2]; Heparin plasma", "value": "Heparin plasma: >289.1 minutes"},
      {"measurement": "Caco-2 permeability AB", "setting": "Caco-2", "value": 0.55, "unit": "cm/sec•10^6"},
      {"measurement": "Caco-2 permeability BA", "setting": "Caco-2", "value": 0.45, "unit": "cm/sec•10^6"},
      {"measurement": "Caco-2 Efflux", "setting": "Caco-2", "value": 0.8},
      {"measurement": "Human intestinal S9 stability at 37° C.", "setting": "[3]", "value": 19.5, "unit": "min"},
      {"measurement": "plasma levels of CAT002 (for determining its half-life)", "setting": "[6]; oral CAT002, analyte CAT002", "value": "either too low or below the limit of quantification"},
      {"measurement": "half-life of GS-441524 derived from CAT002", "setting": "[6]; [9]", "value": 8, "unit": "h"},
      {"measurement": "plasma exposure to GS-441524 with respect to Cmax, fold higher than previously reported for equivalent doses of oral GS-441524 in organic solution", "setting": "[6]; [10]", "value": "approximately 6 fold"},
      {"measurement": "Phosphate buffer stability at 25° C., T1/2", "setting": "[4]; pH 3.0", "value": "pH 3.0: Stable"},
      {"measurement": "Phosphate buffer stability at 25° C., T1/2", "setting": "[4]; pH 7.4", "value": "pH 7.4: 30 hours"},
      {"measurement": "plasma levels of CAT002 (for determining its half-life)", "setting": "[7]; oral CAT002, analyte CAT002", "value": "either too low or below the limit of quantification"},
      {"measurement": "half-life of GS-441524 derived from CAT002", "setting": "[7]; [9]", "value": 3, "unit": "h"},
      {"measurement": "plasma exposure to GS-441524 with respect to Cmax, fold higher than previously reported for equivalent doses of oral GS-441524 in organic solution", "setting": "[7]; [10]", "value": "approximately 6 fold"},
      {"measurement": "plasma levels of CAT002 (for determining its half-life)", "setting": "[8]; oral CAT002, analyte CAT002", "value": "either too low or below the limit of quantification"},
      {"measurement": "half-life of GS-441524 derived from CAT002", "setting": "[8]; [9]", "value": 7.3, "unit": "h"},
      {"measurement": "plasma exposure of the core nucleoside with respect to Cmax, fold higher than oral solution of GS-441524 at an equivalent per-molar dose", "setting": "[8]; oral CAT002 powder-in-capsule formulation", "value": "approximately 4 fold"}
    ]}
  ]
}
